Reference: ChEMBL document CHEMBL1141395, “2-(S)-phenethylaminothiazolones as potent, orally efficacious inhibitors of 11beta-hydroxysteriod dehydrogenase type 1” (J Med Chem, 2007)

Legend:
[1] = biological target: T1, 11-beta-hydroxysteroid dehydrogenase 1 (Homo sapiens, UniProt P28845)
Description: Inhibition of human 11beta-HSD1 over expressed in CHO cells by whole cell assay

[2] = Cmax in Sprague-Dawley rat at 10 mg/kg, po; format: ADME, organism-based; design: dose 10 mg/kg, route oral; conditions: in vivo
[3] = Volume of distribution in Sprague-Dawley rat at 2 mg/kg, iv; format: ADME, organism-based; design: dose 2 mg/kg, route intravenous; conditions: in vivo, read-out: Vss
[4] = Clearance in Sprague-Dawley rat at 2 mg/kg, iv; format: ADME, organism-based; design: dose 2 mg/kg, route intravenous; conditions: in vivo
[5] = biological target: T1, 11-beta-hydroxysteroid dehydrogenase 1; remark: listed apart in the source
Description: Displacement of [3H]cortisone from human recombinant 11beta-HSD1 by SPA

[6] = Oral bioavailability in Sprague-Dawley rat at 10 mg/kg, po; format: ADME, organism-based; conditions: in vivo
[7] = biological target: 11-beta-hydroxysteroid dehydrogenase type 2 (Homo sapiens, UniProt P80365); test: Inhibition of human 11beta-HSD2
Sequence of 11-beta-hydroxysteroid dehydrogenase type 2 (P80365 whole entry, looked up): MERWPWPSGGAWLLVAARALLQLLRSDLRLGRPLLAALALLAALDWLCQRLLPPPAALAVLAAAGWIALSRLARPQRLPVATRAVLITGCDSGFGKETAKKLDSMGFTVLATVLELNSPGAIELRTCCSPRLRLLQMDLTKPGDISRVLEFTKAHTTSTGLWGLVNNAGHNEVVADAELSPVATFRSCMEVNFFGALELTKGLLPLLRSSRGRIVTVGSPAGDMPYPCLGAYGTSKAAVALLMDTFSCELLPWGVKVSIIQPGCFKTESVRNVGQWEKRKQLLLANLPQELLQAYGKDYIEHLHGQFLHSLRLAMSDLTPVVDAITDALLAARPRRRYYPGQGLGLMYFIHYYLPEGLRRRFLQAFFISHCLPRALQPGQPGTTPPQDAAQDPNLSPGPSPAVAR

[8] = biological target: T2, Glucocorticoid receptor (Homo sapiens, UniProt P04150); test: Inhibition of glucocorticoid receptor
T2 sequence (P04150 whole entry): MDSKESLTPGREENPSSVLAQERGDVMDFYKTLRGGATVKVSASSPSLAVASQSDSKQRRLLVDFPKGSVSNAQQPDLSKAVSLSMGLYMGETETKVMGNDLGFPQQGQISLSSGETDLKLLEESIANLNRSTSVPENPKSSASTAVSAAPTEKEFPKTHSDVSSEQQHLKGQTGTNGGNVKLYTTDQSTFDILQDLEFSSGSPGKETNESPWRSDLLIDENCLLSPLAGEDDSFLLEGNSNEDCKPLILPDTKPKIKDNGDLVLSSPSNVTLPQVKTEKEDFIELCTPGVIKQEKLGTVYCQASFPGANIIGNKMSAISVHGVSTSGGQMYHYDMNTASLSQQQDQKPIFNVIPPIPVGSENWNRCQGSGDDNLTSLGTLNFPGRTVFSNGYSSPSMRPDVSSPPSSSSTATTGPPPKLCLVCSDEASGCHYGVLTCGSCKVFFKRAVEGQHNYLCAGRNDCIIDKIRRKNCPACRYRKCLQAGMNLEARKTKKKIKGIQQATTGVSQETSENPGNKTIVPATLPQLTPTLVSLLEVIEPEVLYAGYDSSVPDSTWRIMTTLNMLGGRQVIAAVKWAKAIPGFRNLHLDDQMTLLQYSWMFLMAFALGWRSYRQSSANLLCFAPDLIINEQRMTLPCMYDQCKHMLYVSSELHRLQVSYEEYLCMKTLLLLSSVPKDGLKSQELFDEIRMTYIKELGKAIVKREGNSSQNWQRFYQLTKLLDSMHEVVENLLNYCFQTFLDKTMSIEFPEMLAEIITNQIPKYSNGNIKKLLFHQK

[9] = Drug level in adipose in C57/B16 mouse at 30 mg/kg, po after 6 hrs; format: ADME, organism-based; design: dose 30 mg/kg, route oral; conditions: read-out: Drug uptake
[10] = biological target: 11-beta-hydroxysteroid dehydrogenase 1 (Mus musculus) (UniProt P50172); test: Reduction of 11beta-HSD1 activity in C57/B16 mouse at 30 mg/kg, po after 6 hrs; format: organism-based; design: dose 30 mg/kg; scale not given: the % may be the effect or the level left
Sequence of 11-beta-hydroxysteroid dehydrogenase 1 (Mus musculus) (P50172 whole entry, looked up): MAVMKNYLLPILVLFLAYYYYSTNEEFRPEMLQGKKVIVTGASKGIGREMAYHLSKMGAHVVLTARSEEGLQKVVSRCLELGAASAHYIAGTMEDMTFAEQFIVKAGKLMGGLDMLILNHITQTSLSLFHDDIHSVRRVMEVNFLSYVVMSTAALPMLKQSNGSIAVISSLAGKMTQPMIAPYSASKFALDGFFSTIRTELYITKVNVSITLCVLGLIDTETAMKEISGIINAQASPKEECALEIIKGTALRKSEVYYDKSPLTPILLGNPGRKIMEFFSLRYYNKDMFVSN

[11] = Drug level in C57/B16 mouse plasma at 30 mg/kg, po after 2 hrs; format: ADME, organism-based; design: dose 30 mg/kg, route oral
[12] = Drug level in adipose in C57/B16 mouse at 30 mg/kg, po after 2 hrs; format: ADME, organism-based; design: dose 30 mg/kg, route oral; conditions: read-out: Drug uptake
[13] = Drug level in C57/B16 mouse plasma at 30 mg/kg, po after 6 hrs; format: ADME, organism-based; design: dose 30 mg/kg, route oral
[14] = biological target: 11-beta-hydroxysteroid dehydrogenase 1 (Mus musculus, UniProt P50172); test: Inhibition of murine 11beta-HSD1
Sequence of 11-beta-hydroxysteroid dehydrogenase 1 (Mus musculus, UniProt P50172) (P50172 whole entry): as the sequence (P50172 whole entry, looked up) above

[15] = biological target: 11-beta-hydroxysteroid dehydrogenase 1 (Mus musculus) (UniProt P50172); test: Reduction of 11beta-HSD1 activity in C57/B16 mouse at 30 mg/kg, po after 2 hrs; format: organism-based; design: dose 30 mg/kg; scale not given: the % may be the effect or the level left

T1 sequence (P28845 whole entry): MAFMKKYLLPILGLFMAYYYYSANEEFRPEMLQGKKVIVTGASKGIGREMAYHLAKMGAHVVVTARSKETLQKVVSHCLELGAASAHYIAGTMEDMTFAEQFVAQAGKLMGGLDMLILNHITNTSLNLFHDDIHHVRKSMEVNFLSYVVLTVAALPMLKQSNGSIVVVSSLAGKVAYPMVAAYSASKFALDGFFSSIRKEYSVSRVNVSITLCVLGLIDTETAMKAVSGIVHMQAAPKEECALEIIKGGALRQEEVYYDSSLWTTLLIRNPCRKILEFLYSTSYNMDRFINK

Row | Compound | IC50 [1] | Cmax [2] | Vd [3] | clearance [4] | Ki [5] | bioavailability [6] | IC50 [7] | IC50 [8] | concentration at 6 h [9] | Activity [10] | concentration at 2 h [11] | concentration at 2 h [12] | concentration at 6 h [13] | Ki [14] | Activity [15]
1 | C[C@H](NC1=NC(=O)C(C)(C(F)(F)F)S1)c1ccccc1F (some centres not stated) | 56 nM | 1040 ng/mL | 2.98 L/kg | 8.35 mL/min/kg | 20 nM | 55% | – | – | – | – | – | – | – | – | –
2 | C[C@H](NC1=NC(=O)C(C)(C(C)(C)F)S1)c1ccccc1F (some centres not stated) | – | 1080 ng/mL | 1.66 L/kg | 14.8 mL/min/kg | – | 47% | – | – | – | – | – | – | – | – | –
3 | CC(C)C1(C)SC(NCc2ccccc2)=NC1=O (configuration not stated) | 53 nM | – | – | – | 65 nM | – | – | – | – | – | – | – | – | – | –
4 | CC(C)[C@]1(C)SC(N[C@@H](C)c2ccccc2F)=NC1=O | – | 176 ng/mL | 5.73 L/kg | 42.8 mL/min/kg | – | 20% | – | – | – | – | – | – | – | – | –

The next lines start with the values.

Row | IC50 [1] | Cmax [2] | Vd [3] | clearance [4] | Ki [5] | bioavailability [6] | IC50 [7] | IC50 [8] | concentration at 6 h [9] | Activity [10] | concentration at 2 h [11] | concentration at 2 h [12] | concentration at 6 h [13] | Ki [14] | Activity [15] | Compound
5 | 96 nM | 1230 ng/mL | 1.66 L/kg | 9.6 mL/min/kg | 48 nM | 50% | – | – | – | – | – | – | – | – | – | C[C@H](NC1=NC(=O)[C@](C)(C(F)(F)F)S1)c1ccccc1F
6 | 33 nM | 4630 ng/mL | 1.2 L/kg | 3.13 mL/min/kg | 22 nM | 75% | > 10000 nM | > 50000 nM | 113 µM | 91% | 55 µM | 234 µM | 35 µM | 130 nM | 88% | C[C@H](NC1=NC(=O)[C@@](C)(C(F)(F)F)S1)c1ccccc1F
